Laboratory results published in ChEMBL document CHEMBL2311415, “Cytotoxic quassinoids from Ailanthus altissima” (Bioorg Med Chem Lett, 2013).
pIC50: −log10 of the molar value.

How the values were obtained:
[1] = Cytotoxicity against human Hep3B cells measured after 48 hrs by MTT assay; type: functional, cell-based, Hep 3B2
HepG2 [2] = assay: Cytotoxicity against human adriamycin-resistant HepG2 cells measured after 48 hrs by MTT assay; type: functional, cell-based; conditions: HepG2, 48 h
HepG2 [3] = assay: Cytotoxicity against human HepG2 cells measured after 48 hrs by MTT assay; type: functional, cell-based; conditions: HepG2, 48 h

| Compound | pIC50 [1] | pIC50 (HepG2 [2]) | pIC50 (HepG2 [3]) |
| --- | --- | --- | --- |
| CC(=O)O[C@@H]1C(=O)[C@H](C)[C@@H]2CC(=O)O[C@@H]3C[C@H]4[C@H](C)C[C@H](O)C(=O)[C@]4(C)[C@@H]1[C@@]32C | < 4.30 | < 4.30 | < 4.30 |
| C/C=C(/C)C(=O)O[C@@H]1[C@H]2C(C)=C[C@H](O)[C@@H](O)[C@]2(C)[C@H]2[C@@]3(O)OC[C@@]24[C@@H]1OC(=O)C[C@H]4[C@@H](C)[C@H]3O | 5.61 | < 4.30 | 4.98 |
| C=C1[C@@H](O)[C@]2(O)OC[C@@]34[C@H]1[C@@H](OC(=O)[C@](C)(O)CC)C(=O)O[C@@H]3C[C@H]1C(C)=C[C@H](O)[C@@H](O)[C@]1(C)[C@@H]24 | 6.01 | 4.71 | 5.94 |
| C/C=C(/C)C(=O)O[C@@H]1[C@H]2C(C)=CC(=O)[C@@H](O)[C@]2(C)[C@H]2[C@@]3(O)OC[C@@]24[C@@H]1OC(=O)C[C@H]4[C@@H](C)[C@H]3O | 7.30 | 4.77 | 6.26 |
| C=C1[C@@H](O)[C@@]2(O)OC[C@@]34[C@H]1[C@@H](OC(=O)C(O)(CC)COC(=O)/C(C)=C\C)C(=O)O[C@@H]3C[C@H]1C(C)=CC(=O)[C@@H](O)[C@]1(C)[C@@H]24 (stereo partly specified) [ALTISSINOL A] | 6.43 | < 4.30 | 6.55 |
| C=C1[C@@H](O)[C@@]2(O)OC[C@@]34[C@H]1[C@@H](OC(=O)C(C)CC)C(=O)O[C@@H]3C[C@H]1C(C)=C[C@H](O)[C@@H](O)[C@]1(C)[C@@H]24 (stereo partly specified) [ALTISSINOL B] | 5.63 | < 4.30 | 5.91 |
| C[C@@H]1C[C@H](O)C(=O)[C@]2(C)[C@H]3[C@H](O)C(=O)[C@H](C)[C@@H]4CC(=O)O[C@H](C[C@@H]12)[C@]34C [AMAROLIDE] | < 4.30 | < 4.30 | < 4.30 |
| CC1=CC(=O)[C@@H](O)[C@]2(C)[C@H]3[C@@]4(O)OC[C@@]35[C@@H](C[C@@H]12)OC(=O)C[C@H]5[C@@H](C)[C@H]4O [CHAPARRINONE] | 5.66 | < 4.30 | 5.92 |
| C[C@H]1[C@H](O)C(=O)[C@@H]2[C@@]3(C)[C@H](O)[C@@H](O)C[C@@H](C)[C@@H]3C[C@H]3OC(=O)C[C@@H]1[C@@]23C [CHAPARROLIDE] | < 4.30 | < 4.30 | < 4.30 |
| COc1cccc2c1C(=O)c1c(O)c3c(c(O)c1C2=O)C[C@@](O)(C(=O)CO)C[C@@H]3O[C@H]1C[C@H](N)[C@H](O)[C@H](C)O1 [DOXORUBICIN] | 6.54 | 4.07 | – |
| CC[C@](C)(O)C(=O)O[C@H]1C(=O)O[C@@H]2C[C@H]3C(C)=C[C@H](O)[C@@H](O)[C@]3(C)[C@H]3[C@]4(O)OC[C@]32[C@@H]1[C@@H](C)[C@H]4O [GLAUCARUBIN] | 4.63 | < 4.30 | 4.45 |
| C=C1[C@H](O)[C@]2(O)OC[C@]34[C@H]2[C@@]2(C)[C@H](O)[C@@H](O)C=C(C)[C@@H]2C[C@H]3OC(=O)C[C@@H]14 [SHINJULACTONE A] | 5.10 | < 4.30 | 5.33 |
| CC1=CC(=O)O[C@@H]1[C@@]1(C)C[C@H]2OC(=O)C[C@H]3[C@@H](C)C(=O)C(O)=C1[C@@]23CO [SHINJULACTONE B] | < 4.30 | < 4.30 | < 4.30 |
| CC1=CC(=O)[C@]2(O)[C@@]3(O)C(=O)[C@@H]4[C@]5(CO)[C@H]6CC(=O)O[C@@H]5C[C@@]1([C@@]42C)[C@]63C [SHINJULACTONE C] | < 4.30 | < 4.30 | < 4.30 |
